Measurements reported in patent US10039756B2, “Reducing memory loss in mammals suffering from alzheimer's disease” (The Penn State Research Foundation, priority 2013, dated 2018).

Tests used:
GAT-3 = target: T1, GAT-3 (Mus musculus, UniProt P31650); assay: Tonic GABA current, whole-cell patch clamp in dentate granule cells of hippocampal slices, GAT-3 block; format: cell-based; conditions: 50 μM; AD (5xFAD) dentate granule cells
T1 construct: from tissue; host or cells: mouse hippocampal slices (5xFAD and WT littermates), dentate gyrus
T1 sequence (P31650 1-627): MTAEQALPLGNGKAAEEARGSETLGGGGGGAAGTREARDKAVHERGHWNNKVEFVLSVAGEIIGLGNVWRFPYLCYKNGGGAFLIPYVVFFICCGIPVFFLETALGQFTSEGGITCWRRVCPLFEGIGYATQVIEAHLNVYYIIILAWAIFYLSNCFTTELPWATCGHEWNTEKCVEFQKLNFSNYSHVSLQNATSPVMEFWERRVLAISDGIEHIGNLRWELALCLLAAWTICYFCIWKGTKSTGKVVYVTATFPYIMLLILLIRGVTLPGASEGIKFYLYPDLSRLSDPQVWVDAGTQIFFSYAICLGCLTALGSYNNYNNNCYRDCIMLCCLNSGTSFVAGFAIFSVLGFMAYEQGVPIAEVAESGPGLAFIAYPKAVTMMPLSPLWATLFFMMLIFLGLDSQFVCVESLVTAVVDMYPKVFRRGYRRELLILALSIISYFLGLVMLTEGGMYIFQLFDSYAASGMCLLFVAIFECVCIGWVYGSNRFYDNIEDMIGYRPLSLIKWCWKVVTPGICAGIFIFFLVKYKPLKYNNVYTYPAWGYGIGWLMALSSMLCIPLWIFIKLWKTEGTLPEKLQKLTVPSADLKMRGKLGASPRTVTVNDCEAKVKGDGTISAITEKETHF
Protocol: (§1) Mice were anesthetized with 2.5% Avertin. After decapitation, brains were rapidly dissected out and placed in ice-cold cutting solution containing: 79 mM NaCl, 80 mM sucrose, 26 mM NaHCO3, 10 mM glucose, 2.5 mM KCl, 1.25 mM NaH2PO4, 7 mM MgSO4, and 0.5 mM CaCl2 for tonic current recordings. The cutting solution for field EPSP recordings contained: 230 mM sucrose, 26 mM NaHCO3, 20 mM glucose, 2.5 mM KCl, 1.25 mM NaH2PO4, 10 mM MgSO4, and 0.5 mM CaCl2. Both solutions were bubbled with 95% O2/5% CO2. […]
(§2) Whole-cell voltage clamp recordings were performed on dentate gyrus granule cells using a pipette solution containing: 135 mM CsCl, 5 mM Na-phosphocreatine, 10 mM HEPES, 5 mM EGTA, 4 mM MgATP, 5 mM QX-314, and 0.5 mM Na2GTP (pH 7.3 adjusted with CsOH, 280-290 mOsm/L). […] Data was acquired using pClamp 9 software (Molecular Devices; sampled at 10 kHz and filtered at 1 kHz), and analyzed with Clampfit 9.0 software (Molecular Devices). Field excitatory postsynaptic potentials (fEPSPs) were recorded with glass electrodes filled with 1 M NaCl and 25 mM HEPES (pH 7.3), and were evoked every 20 seconds with a parallel bipolar tungsten electrode (MicroProbes, USA), which was placed at medial perforant path in the dentate gyrus. […]

LTP in DG = assay: Long-term potentiation (LTP) in dentate gyrus, hippocampal slice field EPSP recordings; format: cell-based, mouse; conditions: 50 μM; 5xFAD dentate granule cells
Protocol: as §1, §2

5xFAD mice = assay: Y-maze spontaneous alternation task; format: in vivo, mouse; conditions: 50 μmol kg-1, i.p., once per day for one week, p<0.05
Protocol: L-655,708 was dissolved at 1 mg/mL in DMSO, and frozen in storage aliquots. The working solution was diluted 10 times in normal saline solution. […] The last injection was administrated 30 minutes before behavioral test.
Spontaneous alternation performance was tested as described elsewhere (Oakley et al., J. Neurosci., 26(40):10129-10140 (2006)). […] It allows the assessment of hippocampus-dependent spatial working memory. Each mouse was placed in the center of a symmetrical Y-maze and was allowed to explore freely through the maze during an 8 minute session. The first two minutes were not included for data analysis because mice were exploring new environment. The total number and the sequence of arm entries in the last 6 minutes were recorded and analyzed. Arm entry was defined as the hind paws of the mice had been completely placed in the arm. Analysis was done blind. The percentage of alternation is the number of triads containing entries into all three arms divided by the maximum possible alternations (the total number of arms entered minus 2)×100.
A behavioral analysis was conducted to test the effect of enhanced tonic inhibition on the cognitive function of 5xFAD animals. […] Therefore, it was concluded that the abnormal tonic inhibition in DG is an important contributing factor toward the learning and memory deficit in AD.

human GAT-1 polypeptide = human GAT-1 polypeptide (Homo sapiens, UniProt P30531); conditions: cited from earlier work
human GAT-1 polypeptide, sequence (P30531 whole entry): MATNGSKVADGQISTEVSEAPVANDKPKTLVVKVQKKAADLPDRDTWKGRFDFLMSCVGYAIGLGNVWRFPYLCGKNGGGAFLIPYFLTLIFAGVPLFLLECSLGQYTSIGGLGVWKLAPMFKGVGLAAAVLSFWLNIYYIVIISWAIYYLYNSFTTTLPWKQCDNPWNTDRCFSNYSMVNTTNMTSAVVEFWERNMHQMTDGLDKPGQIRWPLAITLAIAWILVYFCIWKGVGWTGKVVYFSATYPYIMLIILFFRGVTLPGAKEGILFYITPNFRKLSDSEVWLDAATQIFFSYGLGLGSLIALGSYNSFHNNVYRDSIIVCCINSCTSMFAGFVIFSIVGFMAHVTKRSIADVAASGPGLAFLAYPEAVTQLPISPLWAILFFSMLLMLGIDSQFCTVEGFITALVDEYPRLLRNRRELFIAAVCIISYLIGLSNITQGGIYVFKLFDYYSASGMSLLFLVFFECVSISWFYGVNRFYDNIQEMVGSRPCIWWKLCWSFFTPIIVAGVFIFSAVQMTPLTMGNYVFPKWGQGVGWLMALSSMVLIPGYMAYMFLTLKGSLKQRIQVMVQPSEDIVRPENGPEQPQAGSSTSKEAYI

## COc1ccc(C(OCCN2CCC[C@H](C(=O)O)C2)(c2ccc(OC)cc2)c2ccc(OC)cc2)cc1 [SNAP-5114, (S)-1-[2-[tris(4-methoxyphenyl)methoxy]ethyl]-3-piperidinecarboxylic acid]
GAT-3
  block of tonic GABA current: blocked the majority of the tonic GABA current
LTP in DG
  effect on LTP impairment: rescued the LTP impairment
5xFAD mice
  effect on memory deficit (spontaneous alternation): rescued the memory deficit
Human GAT-1 polypeptide
  IC50: > 75 µM
